The record followed here is ChEMBL document CHEMBL1201862, “PubChem BioAssay data set” (2004).

Activity calls are given as the source filed them. For most assays here, no stated cut-off is given here; in the data, actives have a measured EC50 and inactives only a lower limit. Some results are limits rather than exact numbers.

Assay [1] has as its target Luciferin 4-monooxygenase (Photinus pyralis, UniProt P08659). Nature of the assay: firefly luciferase enzyme inhibitors, dose response, biochemical, luminescence (AID 1891).
Assay [2] can be described thus: Luminescence Cell-Based Dose Confirmation HTS to Identify Inhibitors of Platelet Dense Granule Release. [Related pubchem assays: 1663 (Primary HTS), 1678 (Summary of Project)]. The assay is classed as functional.
Assay [3] in a line: HEp-2 cell cytotoxicity, dose response, cytotoxicity control for RSV inhibitor project, HTS (AID 2410). The assay is classed as functional. The note with it: human respiratory syncytial virus.
Assay [4] in a line: Luminescence Cell-Based Dose Retest to Confirm Inhibitors of Cancer Stem Cells. [Related pubchem assays (depositor defined):AID2717, AID2721]. The assay is classed as functional. Conditions: Homo sapiens.
In a further assay the test system is H4. Nature of the assay: Luminescence Cell-Based Dose Response HTS to Identify Activators of 5'UTR Stem-Loop Driven Prion Protein mRNA Translation in H4 Neuroglioblastoma Cells. [Related pubchem assays: 1829 (Project Summary), 1814 (Primary HTS)]. The format is functional. The note with it: Homo sapiens.
Assay [5] is described as follows: Luminescence Cell-Based Dose Response HTS to Identify Activators of Luciferase Translation or Activity in H4 […] Cells. [Related pubchem assays: 1829 (Project Summary), 1814 (Primary HTS)]. The format is functional.
The target in assay [6] is T1, Corticotropin-releasing factor receptor 2/Corticotropin-releasing factor-binding protein (Homo sapiens, UniProt P24387+Q13324).
T1 sequence (Q13324 whole entry): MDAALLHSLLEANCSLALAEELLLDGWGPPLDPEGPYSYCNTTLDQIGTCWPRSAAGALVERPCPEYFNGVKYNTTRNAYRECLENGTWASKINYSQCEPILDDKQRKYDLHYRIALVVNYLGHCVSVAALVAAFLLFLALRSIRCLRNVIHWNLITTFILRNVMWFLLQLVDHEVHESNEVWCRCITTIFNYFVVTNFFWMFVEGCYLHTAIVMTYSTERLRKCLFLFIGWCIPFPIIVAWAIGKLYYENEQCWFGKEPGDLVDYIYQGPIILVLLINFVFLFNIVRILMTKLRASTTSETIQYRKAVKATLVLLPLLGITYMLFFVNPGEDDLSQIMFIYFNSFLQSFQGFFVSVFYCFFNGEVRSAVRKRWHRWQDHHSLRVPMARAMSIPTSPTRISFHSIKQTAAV
T1 sequence (P24387 whole entry): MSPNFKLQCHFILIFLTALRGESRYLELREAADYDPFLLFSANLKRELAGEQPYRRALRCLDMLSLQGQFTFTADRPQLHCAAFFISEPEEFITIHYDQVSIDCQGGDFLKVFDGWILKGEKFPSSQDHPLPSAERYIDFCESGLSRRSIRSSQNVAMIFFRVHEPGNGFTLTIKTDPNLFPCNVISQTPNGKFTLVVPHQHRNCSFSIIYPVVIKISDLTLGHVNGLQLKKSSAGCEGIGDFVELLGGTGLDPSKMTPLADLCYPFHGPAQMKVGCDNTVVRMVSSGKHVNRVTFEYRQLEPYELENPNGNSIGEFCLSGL
Briefly: Dose Response confirmation of uHTS hits for small molecule antagonists of the CRF-binding protein and CRF-R2 receptor complex. The format is functional. The note with it: read-out: IC50_Mean.

For assay [7], the target named is T1, Corticotropin-releasing factor receptor 2/Corticotropin-releasing factor-binding protein. Briefly: activators of CRF receptor 2 with binding protein – uHTS hits, confirmation (AID 602473). The assay is classed as functional. The note with it: read-out: EC50_Mean.
The target in assay [8] is T2, Rac GTPase-activating protein 1 (Homo sapiens, UniProt Q9H0H5).
T2 sequence (Q9H0H5 whole entry): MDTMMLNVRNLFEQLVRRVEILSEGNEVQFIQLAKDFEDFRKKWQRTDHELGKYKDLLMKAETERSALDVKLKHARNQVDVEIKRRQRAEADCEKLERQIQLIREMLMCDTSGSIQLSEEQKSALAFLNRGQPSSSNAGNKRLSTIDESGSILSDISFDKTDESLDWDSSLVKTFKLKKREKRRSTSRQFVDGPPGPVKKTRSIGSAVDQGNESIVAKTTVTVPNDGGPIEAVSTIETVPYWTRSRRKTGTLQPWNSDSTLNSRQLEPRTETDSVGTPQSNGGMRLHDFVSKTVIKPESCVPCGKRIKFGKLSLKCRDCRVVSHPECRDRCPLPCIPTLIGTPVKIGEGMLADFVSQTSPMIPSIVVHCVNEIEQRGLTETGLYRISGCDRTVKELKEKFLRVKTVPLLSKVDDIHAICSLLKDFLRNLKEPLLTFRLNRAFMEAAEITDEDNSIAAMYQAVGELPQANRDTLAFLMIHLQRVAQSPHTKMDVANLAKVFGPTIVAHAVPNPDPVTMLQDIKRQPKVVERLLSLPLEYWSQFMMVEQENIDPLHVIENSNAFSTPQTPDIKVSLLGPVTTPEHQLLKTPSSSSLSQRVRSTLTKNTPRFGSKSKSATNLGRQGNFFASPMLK
Briefly: MgcRacGAP GTPase-activating activity inhibitors, confirmation, biochemical, ADP Hunter fluorescence, primary and confirmatory (AID 624330). The format is functional.

Assay [9] is described as follows: inhibitors of intracellular T. cruzi replication, confirmation, NIH3T3 host cells, beta-gal luminescence (AID 2044).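 Further: intracellular parasites grown in NIH/3T3 mouse fibroblasts as host cells; luminescent beta-galactosidase reporter signal from transgenic T. cruzi replicating inside host cells; inhibitors lower the luminescence signal.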 The assay is classed as functional, cell-based.
Assay [10] can be described thus: cytotoxicity toward NIH3T3 fibroblasts, dose response, counter-screen, cell-based, ATP luminescence, mouse fibroblasts (AID 2010).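 Further: cells exposed to compound for about 90 hours before reading.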 The assay is classed as functional. In general terms: The purpose of a counterscreen is to sort out artefacts and off-target activity.
Assay [11] has as its target T3, Heat shock factor protein 1 (Mus musculus, UniProt P38532).
T3 sequence (P38532 whole entry): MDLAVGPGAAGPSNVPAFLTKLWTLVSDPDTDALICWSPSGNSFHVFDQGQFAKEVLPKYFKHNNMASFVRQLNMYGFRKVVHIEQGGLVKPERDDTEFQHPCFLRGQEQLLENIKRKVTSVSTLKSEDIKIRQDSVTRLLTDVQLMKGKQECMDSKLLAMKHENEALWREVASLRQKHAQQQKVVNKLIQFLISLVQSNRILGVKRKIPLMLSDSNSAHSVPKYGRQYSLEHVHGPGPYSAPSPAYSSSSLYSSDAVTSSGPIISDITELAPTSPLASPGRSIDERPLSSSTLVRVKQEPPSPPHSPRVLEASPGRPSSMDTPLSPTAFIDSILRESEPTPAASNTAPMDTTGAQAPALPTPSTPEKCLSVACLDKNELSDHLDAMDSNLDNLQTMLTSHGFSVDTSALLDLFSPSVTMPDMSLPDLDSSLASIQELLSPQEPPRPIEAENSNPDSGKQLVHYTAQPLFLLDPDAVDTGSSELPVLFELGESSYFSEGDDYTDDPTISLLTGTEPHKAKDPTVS
Nature of the assay: HSF1 potentiators in luciferase reporter cells, confirmation, cell-based, NIH3T3, luminescence, dose retest (AID 435004).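 Further: stress induced by proteasome inhibitor MG132 added 30 min after compound; luciferase reporter driven by HSF1 response element in NIH3T3 cells; actives raise luminescence as potentiators of the MG132 stress response.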 The format is functional.

A further assay has as its target Cytochrome P450 3A4 (Homo sapiens, UniProt P08684).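 Further: CYP3A4 tested as one member of a cytochrome P450 panel screen.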
Assay [12] in a line: Luminescence Cell-Based Dose Response HTS to Identify Inhibitors of 5'UTR Stem-Loop Driven Prion Protein mRNA Translation in H4 Neuroglioblastoma Cells. [Related pubchem assays: 1827 (Project Summary), 1813 (Primary HTS)]. The assay is classed as functional.

Sequence of Luciferin 4-monooxygenase (P08659 whole entry): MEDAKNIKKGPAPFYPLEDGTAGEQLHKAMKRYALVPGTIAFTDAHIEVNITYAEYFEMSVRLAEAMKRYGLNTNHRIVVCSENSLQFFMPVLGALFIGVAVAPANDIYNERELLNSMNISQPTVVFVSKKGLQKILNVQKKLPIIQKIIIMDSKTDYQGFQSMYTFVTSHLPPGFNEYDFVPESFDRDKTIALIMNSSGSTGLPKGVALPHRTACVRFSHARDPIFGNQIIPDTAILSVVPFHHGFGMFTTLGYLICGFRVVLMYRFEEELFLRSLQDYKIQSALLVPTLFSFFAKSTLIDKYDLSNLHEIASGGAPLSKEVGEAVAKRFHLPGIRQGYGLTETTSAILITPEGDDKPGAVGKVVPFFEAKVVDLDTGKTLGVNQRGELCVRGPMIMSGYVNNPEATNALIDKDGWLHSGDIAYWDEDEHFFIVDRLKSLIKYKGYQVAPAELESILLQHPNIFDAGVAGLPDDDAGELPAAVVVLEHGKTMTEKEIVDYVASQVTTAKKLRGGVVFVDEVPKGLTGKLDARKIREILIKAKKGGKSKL
Sequence of Cytochrome P450 3A4 (P08684 whole entry): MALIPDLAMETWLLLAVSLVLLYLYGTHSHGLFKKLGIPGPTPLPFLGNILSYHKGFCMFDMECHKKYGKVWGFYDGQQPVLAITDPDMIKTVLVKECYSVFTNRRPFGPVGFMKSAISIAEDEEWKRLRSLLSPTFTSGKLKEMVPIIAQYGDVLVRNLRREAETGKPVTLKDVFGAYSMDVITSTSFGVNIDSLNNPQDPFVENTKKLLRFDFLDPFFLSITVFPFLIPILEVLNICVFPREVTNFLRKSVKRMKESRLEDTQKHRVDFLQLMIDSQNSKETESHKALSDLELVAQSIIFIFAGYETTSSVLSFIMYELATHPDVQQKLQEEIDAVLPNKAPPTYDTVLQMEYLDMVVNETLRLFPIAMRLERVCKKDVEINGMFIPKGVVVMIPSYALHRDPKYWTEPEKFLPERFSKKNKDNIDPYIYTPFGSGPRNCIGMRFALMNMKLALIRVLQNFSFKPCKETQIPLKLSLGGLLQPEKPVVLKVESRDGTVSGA

As to `COc1ccc(OC)c(Nc2nc(NCc3ccco3)c3ccccc3n2)c1`, the EC50 is 18.7 µM (active) in assay [1] and 49 µM (active) in [2].

Regarding `COc1ccccc1C(=O)Nc1ccc(S(=O)(=O)N(C)c2ccccc2)cc1`, in [3], the CC50 was 29.4 µM (active). With `CC(C)CCNc1nc(-c2ccco2)c2c(c1C#N)CCCC2`, the AC50 in [4] was 10.4 µM (active). With `Cc1ccc(OCCn2cc(/C=C(\C#N)C(=O)NCC3CCCO3)c3ccccc32)cc1` (centres undefined), in [3], the CC50 is 38.7 µM (active). For `COc1ccc(/C=C/C2=NC(=C\N(C)C)/C(=O)O2)cc1`, the figures for the EC50 (with H4; in [5]) were 8.24 µM (active) and 11.2 µM (active), respectively. Regarding `COc1ccc(NC(=O)CC2C(=O)N(C)C(=S)N2CCc2ccccc2)cc1` (centres undefined), the CC50 in assay [3] is 18 µM (active). Take `CC(CCc1ccco1)NC(=O)CCc1nnc2ccc(NCc3ccccc3)nn12` (centres undefined): in assay [6], the IC50 was > 47.1 µM (inactive). Besides, the EC50 is > 112 µM (not active) in [1], > 112 µM (not active) in assay [2] and > 53 µM (inactive) in assay [7]. On to `COc1cc(/C=C/C(=O)OCC(=O)N2CCC(Cc3ccccc3)CC2)ccc1O`, for which the IC50 in [8] was 47.7 µM (active).

Regarding `CCN(CC)c1nc(SCCOC(=O)Nc2ccccc2)nc(N(CC)CC)n1`, the EC50 is 1.73 µM (active) in assay [9] and > 60 µM (not active) in assay [10]. Besides, the AC50 in assay [4] was 2.79 µM (active). `COc1cc(C(=O)N2CCN(c3ccc([N+](=O)[O-])cc3)CC2)ccc1OCc1c(C)noc1C`: the figures for the EC50 in [1] and in assay [2] were 40.2 µM (active) and > 112 µM (not active), respectively.

Consider `O=C(COc1ccc(Br)cc1CO)Nc1ccccc1F`, for which, in assay [3], the half-maximal cytotoxic concentration (CC50) was 35.2 µM (active). On to `O=C(CN1CCN(C2CCCCC2)CC1)Nc1ccccc1-c1ccccc1`, for which the IC50 in assay [8] is 78.1 µM (active).

Take `O=C(/C=C/c1c(F)cccc1Cl)Nc1nc2ccccc2[nH]1`: the EC50 with H4 is 10.4 µM (active); in [5], 0.14 µM (inconclusive). On to `CCCn1c(C)nc2c(c1=O)c1nc3ccccc3nc1n2CCC1=CCCCC1`, for which, in assay [11], the EC50 is > 260 µM (inactive). Further, at Cytochrome P450 3A4, the half-maximal activity concentration (AC50) was 3.16 µM (inconclusive). With `O=C(CSc1ccc(-c2ccccc2)nn1)N1CCCCC1`, the EC50 was 65.2 µM (active) with H4 and 25.4 µM (active) in assay [5]. As for `O=C(O)c1ccc(-c2noc(-c3ccccc3F)n2)cc1`, the results for the EC50 in [1] and in assay [2] were 1.45 µM (active) and 1.6 µM (active), respectively.

In the case of `CCN1CCN(CCOc2ccccc2OCc2ccccc2)CC1`, the IC50 in assay [8] is 94.5 µM (active). For the molecule `CCCCC(=O)Nc1nc(C)c(-c2csc(Nc3cc(Cl)ccc3OC)n2)s1`, in assay [3], the CC50 was 26.5 µM (active). Same read-out and setting: under `[2H]c1c([2H])c([2H])c(-c2nc(N3CCCCCC3)sc2C(=O)c2ccccc2)c([2H])c1[2H]` stands 41.6 µM (active). As for `COc1ccc(Br)cc1CN1CCC(N2CCCC2)CC1`, in assay [8], the IC50 is 59.6 µM (active).

Consider `Cc1ccc(C2(CCNCc3ccc(N(C)C)cc3)CCOC(C(C)C)C2)cc1` (centres undefined), for which, in assay [3], the CC50 was 12.6 µM (active). For `O=c1oc(Nc2cccc(Cl)c2)nc2ccccc12`, the EC50 in [1] was 37.7 µM (active); in [2], 16 µM (active).

With `O=C(CCN1Cc2ccccc2C1)c1ccc2c(c1)OCCO2`, the AC50 in assay [4] is 11.5 µM (active). As for `Cc1ccccc1-n1c(C)nnc1SCc1nc2ccccc2s1`, the EC50 in [5] was 33.1 µM (active). Regarding `Cc1ccc(C(C)C)c(OCCCCN2CCNCC2)c1`, the IC50 in assay [8] was 87.9 µM (active). `CCCCn1c(N)c(N(CC(C)C)C(=O)c2ccc(Br)s2)c(=O)[nH]c1=O`: the EC50 in assay [1] and in assay [2] was > 112 µM (not active) each time. With `COc1ccccc1N(Cc1ccccc1)S(=O)(=O)c1cccc(C(=O)Nc2ccc(C)cn2)c1`, the CC50 in assay [3] was 11 µM (active). Besides, the EC50 was 1.58 µM (active) in [9] and > 30 µM (not active) in [10].

For `CCc1ccc(NC(=O)Nc2ccsc2C(=O)OC)cc1`, the EC50 in assay [1] is 0.701 µM (active); in [2], 2.06 µM (active).

For `Cc1cc2nnc(SC(C)C)n2c2ccccc12`, in [3], the CC50 was > 50 µM (active).

Turning to `Cc1ccc(-c2nc3ccccc3[nH]2)s1`, the EC50 in assay [1] is 0.951 µM (active); in [2], 7.89 µM (active). On to `COc1ccc(C)cc1NC(=O)C(NCC(O)c1ccccc1)c1ccccc1` (centres undefined), for which the IC50 in [8] is 96.8 µM (active). Turning to `S=C(NCC1CC1)N/N=C/c1ccccc1Cl`, the EC50 in [1] and in assay [2] was > 112 µM (not active) in each case.

Take `COc1cc(/C=N\NC(=O)CNC(=O)C(c2ccccc2)c2ccccc2)ccc1O`: the IC50 in assay [8] was 54.6 µM (active). Regarding `CCc1nnc(S)n1/N=C/c1c(C)nn(-c2ccccc2)c1Cl`, in assay [12], the EC50 is 19 µM (active). `CSc1ccc(/C=N/NC(=O)c2cc(O)cc(O)c2)cc1`: the EC50 was 1.22 µM (active) in assay [1] and 10 µM (active) in assay [2].

In the case of `COc1cc(/C=N/NC(=O)/C(=C\c2ccc3c(c2)OCO3)NC(=O)c2ccccc2)ccc1O`, the IC50 in assay [8] is 79.4 µM (active). As to `COc1cc(/C=N/NC(=O)c2ccoc2C)ccc1O`, the IC50 in assay [8] was 27.3 µM (active).

As for `COc1ccc(C(=O)Nc2ccccc2C(=O)N/N=C/c2ccncc2)cc1OC`, the EC50 was 0.609 µM (active) in assay [1] and 0.564 µM (active) in assay [2].

As to `Oc1ccc(/C=C/c2ccc3ccccc3n2)cc1`, the CC50 in [3] was 19.7 µM (active). Besides, the EC50 in assay [1] is 0.161 µM (active); in [2], 0.235 µM (active). The IC50 in assay [8] was 28 µM (active). Regarding `COc1cc([C@H]2OC[C@H]3[C@@H]2CO[C@H]3c2ccc(O)c(OC)c2)ccc1O` [PINORESINOL], the IC50 in assay [8] was 171 µM (active).

For orientation: CC50 means the concentration giving 50% cytotoxicity. What is called AC50 is the midpoint of the concentration-response curve, whichever way the signal moves.
